These results are taken from ChEMBL document CHEMBL4376815, “The Development Process for Discovery and Clinical Advancement of Modern Antimalarials” (J Med Chem, 2019).

Series [1] can be described thus: AUC (infinity) in rat at 23.7 mg/kg, po and measured up to 24 hrs by LC/MS analysis. In kind it is ADME, organism-based. Set-up: dose 23.7 mg/kg, route oral, time infinity. To be noted: in vivo.
The test system of series [2] is Plasmodium falciparum. Briefly: Antimalarial activity against Plasmodium falciparum TM90C2A infected in human erythrocytes assessed as reduction in [3H]-hypoxanthine incorporation incubated for 48 hrs followed by addition of [3H]-hypoxanthine and measured after 24 hrs by liquid scintillation counting method. It counts as functional, organism-based.
Series [3] in a line: in vivo. The following applies: mouse, po, 24.6 mg/kg.
Description: Half life in mouse at 24.6 mg/kg, po and measured up to 24 hrs by LC/MS analysis
For series [4], the system named is Plasmodium berghei. Briefly: Antimalarial activity against Plasmodium berghei infected in NMRI mouse assessed as mean survival days at 30 mg/kg, po administered once and measured up to 30 days. In kind it is functional.
Series [5] is described as follows: Cytotoxicity against human HepG2 cells assessed as reduction in cell viability after 4 days by XTT assay. In kind it is cell-based. Background: Tetrazolium assays rely on reduction of a dye to a coloured formazan, in cell work by metabolically active cells.
In series [6] the test system is Plasmodium falciparum. As to the kind of experiment: Antimalarial activity against Plasmodium falciparum 7G8 infected in human erythrocytes assessed as reduction in [3H]-hypoxanthine incorporation incubated for 48 hrs followed by addition of [3H]-hypoxanthine and measured after 24 hrs by liquid scintillation counting method. It counts as functional, organism-based.

The nature of series [7]: Tmax in Wistar Hannover rat at 10 mg/kg, po by LC-MS/MS analysis. In kind it is ADME, organism-based. To be noted: in vivo.
Series [8] can be described thus: in vivo. To be noted: rat, po, 23.7 mg/kg.
Description: Half life in rat at 23.7 mg/kg, po and measured up to 24 hrs by LC/MS analysis
Series [9] is described as follows: Tmax in mouse at 24.6 mg/kg, po and measured up to 24 hrs by LC/MS analysis. In kind it is ADME, organism-based. The following applies: in vivo.
Series [10] has as its target Voltage-gated inwardly rectifying potassium channel KCNH2 (Homo sapiens, UniProt Q12809). Briefly: Inhibition of human ERG by patch clamp method.
The test system of series [11] is Plasmodium berghei. As to the kind of experiment: Antimalarial activity against Plasmodium berghei infected in NMRI mouse assessed as reduction in parasite growth at 10 mg/kg, po administered once and measured after 96 hrs by flow cytometric analysis relative to control. In kind it is functional. The arrangement: scale not given: the % may be the effect or the level left. On the technique in general: A flow cytometer gives signals particle by particle.

The nature of series [12]: Volume of distribution in Beagle dog at 1 mg/kg, iv by LC-MS/MS analysis. In kind it is ADME, organism-based, Canis lupus familiaris. To be noted: in vivo.
Series [13] concerns Plasmodium falciparum. Briefly: Antimalarial activity against Plasmodium falciparum infected in human assessed as parasite clearance time at 30 mg/kg, po. It counts as functional.
In series [14] the test system is Plasmodium falciparum. As to the kind of experiment: Antimalarial activity against Plasmodium falciparum infected in human assessed as reduction in parasite growth at 30 mg/kg, po administered daily for 3 consecutive day and measured on day 5 relative to control. In kind it is functional. The arrangement: scale not given: the % may be the effect or the level left.

Series [15] is described as follows: Plasma protein binding in human. It counts as ADME, cell-free. The following applies: read-out: PPB.
Series [16] deals with Plasmodium berghei. Briefly: Antimalarial activity against Plasmodium berghei infected in NMRI mouse assessed as reduction in parasite growth at 30 mg/kg, po administered daily for 3 consecutive days by flow cytometric analysis relative to control. The arrangement: scale not given: the % may be the effect or the level left. It counts as functional.
Series [17] is described as follows: Clearance in Beagle dog at 1 mg/kg, iv by LC-MS/MS analysis. The following applies: in vivo. It counts as ADME, organism-based, Canis lupus familiaris.
The test system of series [18] is Plasmodium falciparum. Briefly: Antimalarial activity against Plasmodium falciparum 3D7 infected in human erythrocytes assessed as reduction in [3H]-hypoxanthine incorporation incubated for 48 hrs followed by addition of [3H]-hypoxanthine and measured after 24 hrs by liquid scintillation counting method. In kind it is functional, organism-based.
Series [19] can be described thus: Oral bioavailability in mouse at 24.6 mg/kg and measured up to 24 hrs by LC/MS analysis. It counts as ADME, organism-based. To be noted: in vivo.
Series [20] relates to Plasmodium falciparum. Briefly: Antimalarial activity against Plasmodium falciparum W2 infected in human erythrocytes assessed as reduction in [3H]-hypoxanthine incorporation incubated for 48 hrs followed by addition of [3H]-hypoxanthine and measured after 24 hrs by liquid scintillation counting method. It counts as functional, organism-based.

As usually defined, the AUC(0-inf) is total exposure, with the tail of the curve extrapolated. The term EC50 denotes the concentration giving half of the maximal effect. The half-life is the time in which the quantity being followed falls by half. For orientation: CC50 means the concentration that lowers cell viability or growth by half. What is called Tmax is the time at which the peak concentration occurs. What is called IC50 is the point on the concentration scale where inhibition reaches its midpoint. The term Vd denotes a proportionality between amount in the body and measured concentration, not a real space. Usually clearance stands for the volume of plasma or blood freed of the substance per unit of time. Broadly, the bioavailability is the share of a dose that reaches the circulation, judged against a reference dose that is usually intravenous.

Chain of Voltage-gated inwardly rectifying potassium channel KCNH2 (Q12809 whole entry): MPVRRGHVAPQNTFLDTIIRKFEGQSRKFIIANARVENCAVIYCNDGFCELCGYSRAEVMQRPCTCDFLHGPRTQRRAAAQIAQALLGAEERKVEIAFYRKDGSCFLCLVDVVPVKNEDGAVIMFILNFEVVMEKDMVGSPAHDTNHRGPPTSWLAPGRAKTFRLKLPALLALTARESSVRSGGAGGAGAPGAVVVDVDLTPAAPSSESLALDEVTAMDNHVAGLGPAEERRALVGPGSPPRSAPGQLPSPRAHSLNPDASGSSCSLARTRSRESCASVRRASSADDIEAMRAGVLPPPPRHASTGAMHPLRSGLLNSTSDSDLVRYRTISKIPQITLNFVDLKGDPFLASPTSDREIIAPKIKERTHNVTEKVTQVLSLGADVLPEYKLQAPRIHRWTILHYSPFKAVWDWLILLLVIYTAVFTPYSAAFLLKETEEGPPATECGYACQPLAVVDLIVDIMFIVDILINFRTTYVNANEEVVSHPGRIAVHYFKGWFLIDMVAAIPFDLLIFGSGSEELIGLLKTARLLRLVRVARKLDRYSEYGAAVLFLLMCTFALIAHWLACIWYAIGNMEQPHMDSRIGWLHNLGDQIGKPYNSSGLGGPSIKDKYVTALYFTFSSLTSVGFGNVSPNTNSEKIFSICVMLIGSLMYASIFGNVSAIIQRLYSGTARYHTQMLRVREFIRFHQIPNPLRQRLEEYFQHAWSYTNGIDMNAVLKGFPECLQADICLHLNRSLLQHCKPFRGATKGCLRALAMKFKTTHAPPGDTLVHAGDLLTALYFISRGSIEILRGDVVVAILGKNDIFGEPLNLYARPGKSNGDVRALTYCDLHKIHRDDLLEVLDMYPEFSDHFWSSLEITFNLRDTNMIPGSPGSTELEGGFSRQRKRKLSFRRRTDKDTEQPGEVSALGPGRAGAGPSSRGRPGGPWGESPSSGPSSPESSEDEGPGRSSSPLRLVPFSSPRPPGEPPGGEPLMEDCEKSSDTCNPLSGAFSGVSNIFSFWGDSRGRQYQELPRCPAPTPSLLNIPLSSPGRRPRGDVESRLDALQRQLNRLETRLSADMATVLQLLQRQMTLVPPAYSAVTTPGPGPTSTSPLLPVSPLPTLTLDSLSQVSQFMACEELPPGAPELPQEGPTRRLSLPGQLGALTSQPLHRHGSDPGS

In the case of `C[C@H]1Cc2c([nH]c3cc(Cl)c(F)cc23)[C@@]2(N1)C(=O)Nc1ccc(Cl)cc12` [CIPARGAMIN], the AUC(0-inf) in series [1] was 524 µM·h. In addition, the EC50 in the series with Plasmodium falciparum [2], in the series on Plasmodium falciparum [6], with Plasmodium falciparum [18] and with Plasmodium falciparum [20] was 0.5 to 1.4 nM throughout. Also, the half-life at 24 h in “in vivo [3]” is 10 h; in “in vivo [8]”, 27.7 h. Besides, the MSD in the series on Plasmodium berghei [4] is 24.1 days. Moreover, in [5], the CC50 at 96 h is greater than 10000 nM. The Tmax came out at 5.3 h in series [7] and 1 h in series [9]. This compound also displayed an IC50 in series [10] of no less than 30000 nM. For the same compound, the Activity with Plasmodium berghei [11] was determined as 9.96%; in the series on Plasmodium falciparum [14] it was 100%; in the series with Plasmodium berghei [16], 90%. This compound also yielded a Vd in series [12] of 2.17 L/kg. In addition, in the series with Plasmodium falciparum [13], the Time amounted to 10 h. Besides, the fraction unbound in series [15] is less than 0.003. In series [17], this compound had a clearance of 3.35 mL/min/kg. For the same compound, in series [19], the bioavailability turned out to be 100%.
